The values below come from patent US9399145B2, “Nanoscale neuromodulating platform for retina neuron activation apparatus and method” (The Board of Trustees of the University of Illinois, priority 2005, dated 2016).

The target of one data set is T1, α1β3(N265M)γ2 GABAARs (UniProt P28472+P62813, N290M).
T1 construct: expressed in transfected cells; host or cells: Xenopus oocytes
Nature of the data set: Two-electrode voltage clamp of α1β3(N265M)γ2 GABAAR-expressing oocytes. The note with it: 1 μM trans-MPC088 with 3 μM GABA (~EC2). The data set is classed as cell-based. As for the experimental part: (§1) The activity of trans-dominant MPC088 was also tested at receptors containing the β-subunit substitution N265M, a mutation that markedly reduces the action of propofol both in vitro and in vivo (Jurd et al. (2003); Siegwart et al. (2002)). […] For each receptor type, illustrated responses are representative data obtained from a single oocyte.

Data set [1] concerns Purkinje neurons (PNs) of the cerebellar slice. The experiment in a line: Whole-cell current clamp of Purkinje neurons, action potential firing. Type of data set: cell-based, mouse. The protocol:
The effects of MPC088 on action potential firing in PNs of the cerebellar slice were also examined. These experiments were similar to those, except that the cells were recorded under current-clamp in order to allow the cell to spike. […] Representative data was obtained by whole-cell current-clamp recording from a PN which was injected with 468 pA to elicit a high-frequency train of action potentials. […] The cell was then exposed for 1-s durations to UV light (UV1), then blue light, and then again with UV (UV2). […] Below this trace is plotted the instantaneous firing frequency vs. time; the dashed line reflects the average firing frequency during the 1-s epoch that preceded the first UV exposure (FIG. 41a). FIG. 41b depicts a summary of results from experiments of the type shown in a. Average spike frequencies were obtained for each cell in each of five 1-s epochs, then normalized to the pre-GABA/MPC088 firing frequency (n=8 cells from 4 animals). Error bars here and in c represent the SEM. Repeated-measures ANOVA on the aggregate data yielded F(3,21)=10.213, p<0.001. […] Significance was determined from post-hoc paired-sample t-tests corrected for multiple comparisons, which yielded p<0.02. […]
To further address whether MPC088 has non-specific effects on excitability, the spikes elicited in the experiment described in FIG. 41 were analyzed. […] Three action potential (AP) parameters were measured: peak amplitude, half width, and maximum rise slope. […] AP waveform parameters were calculated for pre-puff, blue light, and UV epochs. […]
For the voltage-clamp experiments of FIG. 40, each cell was […] between 1-6 trials of the drug application+light flash protocol. […] A peri-stimulus time histogram (PSTH) was calculated for each trial using 250-ms time bins; these were averaged across trials to produce a PSTH for the experiment, using the software TaroTools (Dr. Taro Ishikawa, Jikei University School of Medicine, Tokyo, Japan) and Igor Pro 6.2 (WaveMetrics, Inc., Lake Oswego, Oreg.).

Data set [2] concerns GABAARs of isolated bipolar cells of rat retina. Nature of the data set: Whole-cell recording of isolated retinal bipolar cells. Type of data set: cell-based. An excerpt: Data obtained with trans-MPC088 indicated substantial GABAAR potentiating activity by trans-MPC088 (FIG. 61).
The nature of another data set: Hydrophobicity (log P). Type of data set: physicochemical.
The target of another data set is T2, α1β3γ2 GABAAR (UniProt P28472+P62813).
T2 construct: expressed in transfected cells; host or cells: Xenopus oocytes
Nature of the data set: Two-electrode voltage clamp of α1β3γ2 GABAAR-expressing oocytes. Type of data set: cell-based. To be noted: 1 μM trans-MPC088 with 1 μM GABA (~EC3).
Description: Propofol is known to modulate GABAA receptors that contain a β subunit. […] Data in each group was obtained from 4 oocytes. […] Aggregate concentration-response data was also obtained from α1β3γ2 (squares) and α4β3δ (circles) receptors with trans-dominant MPC088 alone (FIG. 37b). Data was similarly normalized to the saturating GABA response obtained from each oocyte. Results for α1β2γ2 GABAARs in a and b (triangles) were reproduced from those of FIGS. 35c and 36b, respectively.
as §1
(Two-electrode voltage clamp is typically applied to oocytes expressing channels or transporters.)

The structures appear in SMILES notation. Some results are limits rather than exact numbers.

Take `CC(C)c1cc(CCCC(=O)NCc2ccc(/N=N/c3ccc(C(=O)NCCN)cc3)cc2)cc(C(C)C)c1O` [MPC088, (E)-N-(2-Aminoethyl)-4-((4-((4-(4-hydroxy-3,5-diisopropylphenyl)butanamido)methyl)phenyl)diazenyl)benzamide]: the figures for the response enhancement at α1β3(N265M)γ2 GABAARs and at α1β3γ2 GABAAR were 2.9±0.8 fold and 4.4±1.3 fold, respectively. Further, the “firing rate produced by blue light relative to that produced by UV light” value in data set [1] (10 μM GABA + 30 μM MPC088, UV-Blue-UV flashes) amounted to 52±14%. For the same compound, the “decrease of firing rate” value in data set [1] (10 μM GABA + 30 μM trans-dominant MPC088) is “approximately 50%”. Further, the “effects on AP waveform” value in data set [1] (peak amplitude, half width, maximum rise slope) is listed as “no detectable effects”. Further, the “potentiating factor (peak amplitude relative to the 10 μM GABA response)” value in data set [2] (5 μM with 10 μM GABA and 100 μM TPMPA) came to 1.73±0.01; in data set [2] (15 μM with 10 μM GABA and 100 μM TPMPA), 3.26±0.42. Further, the logP (as a rule, a log measure of how a compound divides between an organic and an aqueous phase) in “Hydrophobicity (log P)” was over 6.
